Source: patent US9180134B2, “Mitochondrial ribosomal proteins as aging regulators” (ECOLE POLYTECHNIQUE FEDERALE DE LAUSANNE (EPEL), priority 2011, dated 2015)

Tests used:
C57BL/6N mice = assay: Mouse indirect calorimetry (CLAMS); assay type: in vivo; details: C57BL/6 mice, chow containing doxycycline for 10 days, data not shown
Method: Wild type C57BL/6N mice were treated for 10 days with 50 mpkd doxycycline (Sigma) in food admix. Oxygen consumption (VO2), respiratory exchange ratios (RER), and activity were monitored by indirect calorimetry using the comprehensive laboratory animal monitoring system (CLAMS) (Columbus Instruments, Columbus, Ohio, USA).

[1] = tested on: Hepa1-6 mouse liver cells; assay: ATP content (CellTiter-Glo) in Hepa1-6 cells; assay type: cell-based; details: data not shown
Method: (§1) Hepa1-6 mouse liver cells were maintained in DMEM medium containing 4.5 g/l glucose and 10% fetal calf serum. Hepa1-6 cells were incubated for 48 h with doxycycline or chloramphenicol (both Sigma) in medium containing 1 g/l glucose, with 1% (v/v) oleate-BSA (Sigma) supplementation, and without any other antibiotics. Oxygen consumption in Hepa1-6 cells was measured using the Seahorse XF24 equipment (Watanabe et al., 2006, Nature 439, 484), and normalized for protein content. ATP content was measured using CellTiter-Glo (Promega), according to the manufacturer's protocol.

[2] = tested on: mitochondrial unfolded protein response (UPR^mt); assay: UPR^mt GFP reporter worms (hsp-6::GFP); assay type: in vivo, C. elegans; details: Day 1 adults
Method: Treatments with antibiotics (carbenicillin, doxycycline, and chloramphenicol (all Sigma)) were performed with heat-killed bacteria (Wood et al., 2004, Nature 430, 686). Carbenicillin, doxycycline, and chloramphenicol were added at the indicated concentrations. Animals were exposed to antibiotics from eggs to L4 larval stage and then shifted on plates seeded with live OP50 bacteria. GFP expression and quantification were carried out according to the protocol previously described (Durieux et al, 2011, Cell 144, 79). Briefly, GFP was monitored in Day 1 adults. Fluorimetric assays were performed using a Victor X4 multilabel plate reader (Perkin-Elmer Life Science). Eighty roller worms were picked at random (20 worms per well of a black-walled 96-well plate) and each well was read four times and averaged. Each experiment was repeated at least twice. For picture acquisition, animals were mounted on 2% agarose pads in a droplet of 10 mM tetramisole (Sigma) and examined using a Zeiss Axioplan-2 microscope (Carl Zeiss MicroImaging, Thornwood, N.Y., USA) equipped for both DIC and epifluorescence. Images were obtained using a Coolsnap ES^2 camera.

C. elegans [3] = assay: Worm respiration assay (Seahorse XF24); assay type: in vivo; details: worms treated with antibiotic
Method: Treatments with antibiotics (carbenicillin, doxycycline, and chloramphenicol (all Sigma)) were performed with heat-killed bacteria (Wood et al., 2004, Nature 430, 686). Carbenicillin, doxycycline, and chloramphenicol were added at the indicated concentrations. Animals were exposed to antibiotics from eggs to L4 larval stage and then shifted on plates seeded with live OP50 bacteria. Oxygen consumption was measured using the Seahorse XF24 equipment (Seahorse Bioscience Inc., North Billerica, Mass.). Typically, 200 animals per conditions were recovered from NGM plates with M9 medium, washed three times in 2 mL M9 to eliminate residual bacteria, and resuspended in 500 μL M9 medium. Worms were transferred in 24-well standard Seahorse plates (#100777-004) (50 worms per well) and oxygen consumption was measured 6 times. Respiration rates were normalized to the number of worms in each individual well.

C. elegans [4] = assay: Worm lifespan analysis; assay type: in vivo; details: antibiotic from eggs to L4 larval stage, heat-killed bacteria; 20° C
Method: Lifespan tests were performed as described (Mouchiroud et al., 2011, Aging Cell 10, 39). Briefly, 60-100 animals were used per conditions and scored every other day. All lifespan experiments were performed at 20° C. […] Treatments with antibiotics (carbenicillin, doxycycline, and chloramphenicol (all Sigma)) were performed with heat-killed bacteria (Wood et al., 2004, Nature 430, 686). Carbenicillin, doxycycline, and chloramphenicol were added at the indicated concentrations. Animals were exposed to antibiotics from eggs to L4 larval stage and then shifted on plates seeded with live OP50 bacteria.

[5] = tested on: Hepa1-6 mouse liver cells; assay: Oxygen consumption in Hepa1-6 cells (Seahorse XF24); assay type: cell-based; details: 48 h incubation, normalized for protein content
Method: as §1

Compound	activity (C57BL/6N mice)	body weight (C57BL/6N mice)	food intake (C57BL/6N mice)	cell viability as measured by ATP levels [1]	UPR^mt induction in C. elegans [2]	oxygen consumption (respiration) of C. elegans (C. elegans [3])	lifespan of C. elegans (C. elegans [4])	respiration (oxygen consumption) in Hepa1-6 cells [5]
C[C@H]1c2cccc(O)c2C(=O)C2=C(O)[C@]3(O)C(=O)C(C(N)=O)=C(O)[C@@H](N(C)C)[C@@H]3[C@@H](O)[C@@H]21 [doxycycline]	without changes	without changes	without changes	without affecting cell viability	–	–	–	–
O=C(N[C@H](CO)[C@H](O)c1ccc([N+](=O)[O-])cc1)C(Cl)Cl [chloramphenicol]	–	–	–	–	induced UPR^mt	decreased respiration	extended lifespan	decreased respiration
